The source of these data is patent US20250353891A1 (MEDIMMUNE LIMITED, priority 2022, published 2025).

The structures appear in SMILES notation. Where two headings read alike, the source gives them in different places. Starred links: 1 amine or outer side, 2 acyl side, 3 side chain; linkers in the order of their positions; H or OH if unused. Non-standard residues stand in square brackets, D forms with d. Residues, ends and D or L forms follow the SMILES beside them. Groups on a side chain read outwards from the residue. *: point of attachment. C20 diacid = O=C(O)CCCCCCCCCCCCCCCCCCC(=O)*; C18 diacid = O=C(O)CCCCCCCCCCCCCCCCC(=O)*; γGlu = O=C(O)[C@H](CCC(=O)[*:2])N[*:1]; Palmitoyl = CCCCCCCCCCCCCCCC(=O)*; αMeF = C[C@](N)(Cc1ccccc1)C(=O)O; PEG2 = NCCOCCOCCC(=O)O; AEEA = NCCOCCOCC(=O)O; Aib = CC(C)(N)C(=O)O

The target in experiment [1] is human glucagon receptor (hGCGR) (Homo sapiens, UniProt P47871). As to the kind of experiment: cAMP production (HTRF) in CHO cells expressing hGCGR. The experiment is classed as cell-based. Also on record: expressed in transfected cells. Conditions: cAMP in CHO hGCGR cells, geometric mean, read-out: hGluc-R EC50. An outline of the steps: (§1)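 Cells were resuspended in assay buffer at batch-optimized density, typically 1×10^5 cells/mL for hGLP-1R and 2×10^5 cells/mL for hGCGR. After 30 min incubation at room temperature with compound, cAMP was measured by two-step HTRF. EC50 values came from 4-parameter logistic fits of % Delta F.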
human glucagon receptor (hGCGR), sequence (P47871 26-477): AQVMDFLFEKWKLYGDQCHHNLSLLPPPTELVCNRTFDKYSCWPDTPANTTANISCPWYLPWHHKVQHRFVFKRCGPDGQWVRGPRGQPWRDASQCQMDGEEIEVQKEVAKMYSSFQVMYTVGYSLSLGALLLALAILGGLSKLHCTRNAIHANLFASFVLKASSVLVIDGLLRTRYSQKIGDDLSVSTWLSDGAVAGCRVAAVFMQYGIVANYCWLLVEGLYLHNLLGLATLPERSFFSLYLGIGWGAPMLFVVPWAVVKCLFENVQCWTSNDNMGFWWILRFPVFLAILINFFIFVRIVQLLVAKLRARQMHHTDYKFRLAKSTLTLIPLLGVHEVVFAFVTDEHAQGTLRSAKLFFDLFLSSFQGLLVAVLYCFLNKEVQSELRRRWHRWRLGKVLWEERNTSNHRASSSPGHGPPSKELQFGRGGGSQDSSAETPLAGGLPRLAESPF

Experiment [2] addresses human GLP-1 receptor (hGLP-1R) (Homo sapiens, UniProt P43220). As to the kind of experiment: cAMP production (HTRF) in CHO cells expressing hGLP-1R. The experiment is classed as cell-based. Set-up: expressed in transfected cells. Conditions: for EC50: cAMP in CHO hGLP-1R cells, geometric mean, read-out: hGLP-1R EC50; for % Relative Potency Ratio: % GLP-1R activity relative to GLP-1 / % GlucR activity relative to glucagon. The gist of the method: as §1

Where [3] appears, read: Table 7, peptides modified at position 20.
The mark [4] stands for this setting: Table 6, peptides modified at position 17.

human GLP-1 receptor (hGLP-1R), sequence (P43220 24-463): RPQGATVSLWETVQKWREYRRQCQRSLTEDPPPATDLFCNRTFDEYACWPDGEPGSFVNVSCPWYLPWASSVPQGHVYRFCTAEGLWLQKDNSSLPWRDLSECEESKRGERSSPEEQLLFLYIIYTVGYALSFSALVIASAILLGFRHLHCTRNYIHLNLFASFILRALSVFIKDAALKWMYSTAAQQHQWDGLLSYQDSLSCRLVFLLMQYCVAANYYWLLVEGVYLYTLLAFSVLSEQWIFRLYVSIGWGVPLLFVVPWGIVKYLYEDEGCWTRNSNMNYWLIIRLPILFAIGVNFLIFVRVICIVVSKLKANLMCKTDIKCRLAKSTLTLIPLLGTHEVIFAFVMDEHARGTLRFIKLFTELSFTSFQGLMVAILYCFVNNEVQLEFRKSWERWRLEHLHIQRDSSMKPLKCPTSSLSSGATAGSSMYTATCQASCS

Take `CC[C@H](C)[C@H](NC(=O)C(C)(C)NC(=O)[C@H](CCC(N)=O)NC(=O)[C@@H](NC(=O)[C@](C)(Cc1ccccc1)NC(=O)[C@H](CC(=O)O)NC(=O)[C@H](CCCCNC(=O)COCCOCCNC(=O)CC[C@H](NC(=O)CCCCCCCCCCCCCCCCC(=O)O)C(=O)O)NC(=O)[C@H](C)NC(=O)[C@H](C)NC(=O)[C@H](CCCNC(=N)N)NC(=O)[C@H](CO)NC(=O)[C@H](CC(=O)O)NC(=O)[C@H](CC(C)C)NC(=O)[C@](C)(Cc1ccccc1)NC(=O)[C@H](CCCCN)NC(=O)[C@H](CO)NC(=O)[C@@H](NC(=O)[C@H](CC(=O)O)NC(=O)[C@H](CO)NC(=O)[C@@H](NC(=O)[C@](C)(Cc1ccccc1)NC(=O)[C@H](CO)NC(=O)CNC(=O)[C@H](Cc1c[nH]cn1)NC(=O)C(C)(C)NC(=O)[C@@H](N)Cc1c[nH]cn1)[C@@H](C)O)C(C)C)C(C)C)C(=O)N[C@@H](C)C(=O)N[C@@H](CC(N)=O)C(=O)N[C@H](C(N)=O)[C@@H](C)O` [Peptide 262] (H-H[Aib]HGS[αMeF]TSDVSK[αMeF]LDSRAAK([AEEA-γGlu-C18 diacid])D[αMeF]VQ[Aib]IANT-NH2): the results for the EC50 in experiment [1] (setting [3]) and in experiment [2] (setting [3]) were 11.7 pM and 13 pM, respectively. For the same molecule, the “% Relative Potency Ratio” value in experiment [2] (Table 7) is 1.8.

For the molecule `CCCCCCCCCCCCCCCC(=O)N[C@@H](CCC(=O)NCCOCCOCCC(=O)NCCOCCOCCC(=O)NCCCC[C@H](NC(=O)[C@H](CO)NC(=O)[C@H](CC(=O)O)NC(=O)[C@H](CC(C)C)NC(=O)[C@@H](NC(=O)[C@H](CCCCN)NC(=O)[C@H](CO)NC(=O)[C@@H](NC(=O)[C@H](CC(=O)O)NC(=O)[C@H](CO)NC(=O)[C@@H](NC(=O)[C@](C)(Cc1ccccc1)NC(=O)[C@H](CO)NC(=O)CNC(=O)[C@H](CCC(N)=O)NC(=O)[C@H](CO)NC(=O)[C@@H](N)Cc1c[nH]cn1)[C@@H](C)O)C(C)C)[C@@H](C)CC)C(=O)N[C@@H](C)C(=O)N[C@@H](C)C(=O)N[C@@H](CCC(N)=O)C(=O)N[C@@H](CC(=O)O)C(=O)N[C@@](C)(Cc1ccccc1)C(=O)N[C@H](C(=O)N[C@@H](CCC(N)=O)C(=O)NC(C)(C)C(=O)N[C@H](C(=O)N[C@H](C(=O)N[C@@H](CC(N)=O)C(=O)N[C@H](C(N)=O)[C@@H](C)O)[C@@H](C)CC)[C@@H](C)CC)C(C)C)C(=O)O` [Peptide 121] (H-HSQGS[αMeF]TSDVSKILDSK([PEG2-PEG2-γGlu-Palmitoyl])AAQD[αMeF]VQ[Aib]IINT-NH2; N-terminus assumed), the EC50 in experiment [1] (setting [4]) was found to be 1.2 pM; in experiment [2] (setting [4]), 1.5 pM. In experiment [2] (Table 6), the “% Relative Potency Ratio” value stood at 1.6.

As for `CC[C@H](C)[C@H](NC(=O)C(C)(C)NC(=O)[C@H](CCC(N)=O)NC(=O)[C@@H](NC(=O)[C@](C)(Cc1ccccc1)NC(=O)[C@H](CC(=O)O)NC(=O)[C@H](CCC(N)=O)NC(=O)[C@H](C)NC(=O)[C@H](C)NC(=O)[C@H](CCCCNC(=O)COCCOCCNC(=O)COCCOCCNC(=O)CC[C@H](NC(=O)CCCCCCCCCCCCCCCCC(=O)O)C(=O)O)NC(=O)[C@H](CO)NC(=O)[C@H](CC(=O)O)NC(=O)[C@H](CC(C)C)NC(=O)C(C)(C)NC(=O)[C@H](CCCCN)NC(=O)[C@H](CO)NC(=O)[C@@H](NC(=O)[C@H](CC(=O)O)NC(=O)[C@H](CO)NC(=O)[C@@H](NC(=O)[C@](C)(Cc1ccccc1)NC(=O)[C@H](CO)NC(=O)CNC(=O)[C@H](CCC(N)=O)NC(=O)[C@H](CO)NC(=O)[C@@H](N)Cc1c[nH]cn1)[C@@H](C)O)C(C)C)C(C)C)C(=O)N[C@@H](C)C(=O)N[C@@H](CC(N)=O)C(N)=O` [Peptide 1] (H-HSQGS[αMeF]TSDVSK[Aib]LDSK([AEEA-AEEA-γGlu-C18 diacid])AAQD[αMeF]VQ[Aib]IAN-NH2; N-terminus assumed), the EC50 in experiment [1] (setting [4]) is above 27100 pM; in experiment [2] (setting [4]) it was 3200 pM.

`CC[C@H](C)[C@H](NC(=O)[C@H](Cc1c[nH]c2ccccc12)NC(=O)[C@H](CCC(N)=O)NC(=O)[C@@H](NC(=O)[C@H](Cc1ccccc1)NC(=O)[C@H](CC(=O)O)NC(=O)[C@H](CCCCNC(=O)COCCOCCNC(=O)COCCOCCNC(=O)CC[C@H](NC(=O)CCCCCCCCCCCCCCCCC(=O)O)C(=O)O)NC(=O)[C@H](C)NC(=O)C(C)(C)NC(=O)[C@H](CCCNC(=N)N)NC(=O)[C@H](CO)NC(=O)[C@H](CC(=O)O)NC(=O)[C@H](CC(C)C)NC(=O)[C@](C)(Cc1ccccc1)NC(=O)[C@H](CCCCN)NC(=O)[C@H](CO)NC(=O)[C@@H](NC(=O)[C@H](CC(=O)O)NC(=O)[C@H](CO)NC(=O)[C@@H](NC(=O)[C@](C)(Cc1ccccc1)NC(=O)[C@H](CO)NC(=O)CNC(=O)[C@H](Cc1c[nH]cn1)NC(=O)C(C)(C)NC(=O)[C@@H](N)Cc1c[nH]cn1)[C@@H](C)O)C(C)C)C(C)C)C(=O)N[C@@H](C)C(=O)N[C@@H](CC(N)=O)C(=O)N[C@H](C(N)=O)[C@@H](C)O` [Peptide 206] (H-H[Aib]HGS[αMeF]TSDVSK[αMeF]LDSR[Aib]AK([AEEA-AEEA-γGlu-C18 diacid])DFVQWIANT-NH2): the figures for the EC50 in experiment [1] (setting [3]) and in experiment [2] (setting [3]) were 18.2 pM and 70.9 pM, respectively. In experiment [2] (Table 7), the “% Relative Potency Ratio” value turned out to be 0.5.

With `CC[C@H](C)[C@H](NC(=O)[C@H](Cc1c[nH]c2ccccc12)NC(=O)[C@H](CCC(N)=O)NC(=O)[C@@H](NC(=O)[C@](C)(Cc1ccccc1)NC(=O)[C@H](CC(=O)O)NC(=O)[C@H](CCCCNC(=O)COCCOCCNC(=O)COCCOCCNC(=O)CC[C@H](NC(=O)CC[C@H](NC(=O)CCCCCCCCCCCCCCCCCCC(=O)O)C(=O)O)C(=O)O)NC(=O)[C@H](C)NC(=O)[C@H](C)NC(=O)[C@H](CCCNC(=N)N)NC(=O)[C@H](CO)NC(=O)[C@H](CC(=O)O)NC(=O)[C@H](CC(C)C)NC(=O)[C@](C)(Cc1ccccc1)NC(=O)[C@H](CCCCN)NC(=O)[C@H](CO)NC(=O)[C@@H](NC(=O)[C@H](CC(=O)O)NC(=O)[C@H](CO)NC(=O)[C@@H](NC(=O)[C@](C)(Cc1ccccc1)NC(=O)[C@H](CO)NC(=O)CNC(=O)[C@H](Cc1c[nH]cn1)NC(=O)C(C)(C)NC(=O)[C@@H](N)Cc1c[nH]cn1)[C@@H](C)O)C(C)C)C(C)C)C(=O)N[C@@H](C)C(=O)N[C@@H](CC(N)=O)C(=O)N[C@H](C(=O)NCC(N)=O)[C@@H](C)O` [Peptide 238] (H-H[Aib]HGS[αMeF]TSDVSK[αMeF]LDSRAAK([AEEA-AEEA-γGlu-γGlu-C20 diacid])D[αMeF]VQWIANTG-NH2), the EC50 in experiment [1] (setting [3]) amounted to 990 pM; in experiment [2] (setting [3]), 155 pM. In addition, the “% Relative Potency Ratio” value in experiment [2] (Table 7) is given as 12.7.

As to `CC[C@H](C)[C@H](NC(=O)[C@H](CO)NC(=O)[C@H](CCC(N)=O)NC(=O)[C@@H](NC(=O)[C@H](Cc1ccccc1)NC(=O)[C@H](CC(=O)O)NC(=O)[C@H](CCCCNC(=O)COCCOCCNC(=O)COCCOCCNC(=O)CC[C@H](NC(=O)CC[C@H](NC(=O)CCCCCCCCCCCCCCCCCCC(=O)O)C(=O)O)C(=O)O)NC(=O)[C@H](C)NC(=O)C(C)(C)NC(=O)[C@H](CCCNC(=N)N)NC(=O)[C@H](CO)NC(=O)[C@H](CC(=O)O)NC(=O)[C@H](CC(C)C)NC(=O)[C@](C)(Cc1ccccc1)NC(=O)[C@H](CCCCN)NC(=O)[C@H](CO)NC(=O)[C@@H](NC(=O)[C@H](CC(=O)O)NC(=O)[C@H](CO)NC(=O)[C@@H](NC(=O)[C@](C)(Cc1ccccc1)NC(=O)[C@H](CO)NC(=O)CNC(=O)[C@H](Cc1c[nH]cn1)NC(=O)C(C)(C)NC(=O)[C@@H](N)Cc1c[nH]cn1)[C@@H](C)O)C(C)C)C(C)C)C(=O)N[C@@H](C)C(=O)N[C@@H](CC(N)=O)C(=O)N[C@H](C(N)=O)[C@@H](C)O` [Peptide 242] (H-H[Aib]HGS[αMeF]TSDVSK[αMeF]LDSR[Aib]AK([AEEA-AEEA-γGlu-γGlu-C20 diacid])DFVQSIANT-NH2; N-terminus assumed), the values for the EC50 in experiment [1] (setting [3]) and in experiment [2] (setting [3]) were 1230 pM and 249 pM, respectively. Besides, the “% Relative Potency Ratio” value in experiment [2] (Table 7) came out at 9.8.
